Experimental data reported in ChEMBL document CHEMBL1142054, “QSAR-by-NMR: quantitative insights into structural determinants for binding affinity by analysis of 1H/15N chemical shift differences in MMP-3 ligands” (Bioorg Med Chem Lett, 2005).
pIC50: −log10 of the molar value.

Key:
Stromelysin-1 [1] = target: T1, Stromelysin-1 (Homo sapiens, UniProt P08254); test: (§1) Binding affinity for human Matrix metalloprotease-3
Target sequence in this assay (P08254 100-477 limits assumed): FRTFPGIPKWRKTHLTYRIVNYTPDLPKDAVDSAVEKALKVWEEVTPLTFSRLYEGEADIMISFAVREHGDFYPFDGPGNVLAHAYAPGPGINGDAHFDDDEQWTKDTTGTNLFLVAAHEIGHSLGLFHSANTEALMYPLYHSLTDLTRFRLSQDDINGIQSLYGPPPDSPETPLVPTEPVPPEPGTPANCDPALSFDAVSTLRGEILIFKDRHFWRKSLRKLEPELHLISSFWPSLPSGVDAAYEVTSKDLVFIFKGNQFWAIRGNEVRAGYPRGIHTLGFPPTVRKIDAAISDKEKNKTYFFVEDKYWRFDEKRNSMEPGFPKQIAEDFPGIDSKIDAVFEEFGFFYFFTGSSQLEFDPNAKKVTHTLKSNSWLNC

Stromelysin-1 [2] = target: T1, Stromelysin-1; test: as §1; remark: listed apart in the source
Target sequence in this assay (P08254 whole entry): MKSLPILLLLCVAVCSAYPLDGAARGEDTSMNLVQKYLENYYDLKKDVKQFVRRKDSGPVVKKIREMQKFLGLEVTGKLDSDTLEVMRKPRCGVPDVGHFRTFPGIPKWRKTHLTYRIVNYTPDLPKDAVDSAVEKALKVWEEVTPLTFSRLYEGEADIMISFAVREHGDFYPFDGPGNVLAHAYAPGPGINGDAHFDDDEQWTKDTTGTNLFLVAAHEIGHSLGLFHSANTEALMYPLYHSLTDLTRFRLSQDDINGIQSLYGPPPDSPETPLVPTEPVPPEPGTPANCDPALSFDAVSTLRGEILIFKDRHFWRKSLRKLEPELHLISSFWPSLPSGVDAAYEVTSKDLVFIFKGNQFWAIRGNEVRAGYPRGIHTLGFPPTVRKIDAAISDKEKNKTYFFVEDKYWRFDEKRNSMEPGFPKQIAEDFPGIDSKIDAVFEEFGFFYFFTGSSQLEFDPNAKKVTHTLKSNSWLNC

Neutrophil collagenase = Neutrophil collagenase (Homo sapiens, UniProt P22894); test: Binding affinity for human Matrix metalloprotease-8
Neutrophil collagenase, sequence (P22894 whole entry): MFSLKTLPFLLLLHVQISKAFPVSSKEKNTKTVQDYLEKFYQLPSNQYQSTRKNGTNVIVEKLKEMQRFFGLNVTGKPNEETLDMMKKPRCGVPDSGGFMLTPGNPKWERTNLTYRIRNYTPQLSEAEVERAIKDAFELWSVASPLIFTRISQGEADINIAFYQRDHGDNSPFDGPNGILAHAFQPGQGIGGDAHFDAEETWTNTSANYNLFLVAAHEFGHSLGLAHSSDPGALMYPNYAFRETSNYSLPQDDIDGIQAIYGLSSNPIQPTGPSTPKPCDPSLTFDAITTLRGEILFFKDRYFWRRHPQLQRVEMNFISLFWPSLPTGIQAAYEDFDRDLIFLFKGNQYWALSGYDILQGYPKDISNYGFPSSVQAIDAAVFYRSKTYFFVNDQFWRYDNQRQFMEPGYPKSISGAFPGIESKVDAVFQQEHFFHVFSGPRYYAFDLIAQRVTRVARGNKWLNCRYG

Compound	Concentration (Stromelysin-1 [1]) [nM]	pIC50 (Stromelysin-1 [2])	pIC50 (Neutrophil collagenase)
O=C(O)[C@H]1Cc2ccccc2CC1S(=O)(=O)c1ccc(F)cc1 (some centres not stated)	400		
O=C(O)[C@H]1Cc2ccccc2CC1S(=O)(=O)c1ccc(-c2ccccc2)cc1 (some centres not stated)		6.30	8.00
N#Cc1ccc(-c2ccc(S(=O)(=O)C3Cc4ccccc4C[C@@H]3C(=O)O)cc2)cc1 (some centres not stated)	1000		
O=C(O)[C@H]1Cc2ccccc2CC1S(=O)(=O)c1ccc(CCc2ccccc2)cc1 (some centres not stated)	50		
O=C(O)[C@H]1Cc2ccccc2CC1S(=O)(=O)c1ccc(Cl)cc1 (some centres not stated)	100		
O=C(O)[C@H]1Cc2ccccc2CC1S(=O)(=O)c1ccc(Oc2ccccc2)cc1 (some centres not stated)	200		
